Some test systems named below: RPMI-8226; Hs-578T; UACC-257; M14; OVCAR-4; SNB-75; 786-0; CAKI-1; Malme-3M; EKVX; HL-60; SK-MEL-5; HCC 2998; HT-29; U-251; OVCAR-3; MDA-MB-231.
Holding throughout (assay): NCI-60 cell line screen, 48 h

Several values for one entry are separate records, joined by “and”; a condition that tells them apart may be missing. Equal entries are not always repeated.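 Step 1: Grow cells in 96-well plates. Step 2: Expose to compound for 48 hours at 5 concentrations. Step 3: Interpolate endpoints linearly; if unreached, use highest concentration. At the GI50, growth is halved.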 Activity calls are given as the source filed them. Rule as the data show it: active = GI50 up to about 1.1 µM and inactive = higher. Where only a bound is given, the exact number is not on record here.

With `C=C(Cl)C(Cl)(CBr)CCC(Br)C(C)(C)Cl` (stereo unspecified), the GI50 with RPMI-8226 was 149 nM (active) and 221 nM (active) and 485 nM (active); with Hs-578T, 914 nM (active) and 1.11 µM (active) and 665 nM (active); with UACC-257, 2.78 µM (inactive) and 1.66 µM (inactive) and 2.1 µM (inactive); with M14 it was 18.7 µM (inactive) and 15.6 µM (inactive) and 26.7 µM (inactive); in the experiment with OVCAR-4, 2.92 µM (inactive) and 1.6 µM (inactive) and 10.7 µM (inactive); in the experiment with SNB-75, 1.64 µM (inactive) and 834 nM (active) and 416 nM (active). The GI50 with 786-0 is 640 nM (active) and 175 nM (active) and 247 nM (active); with CAKI-1, 217 nM (active) and 1.02 µM (active) and 828 nM (active); in the experiment on Malme-3M, 13.6 µM (inactive) and 15.3 µM (inactive) and 7.36 µM (inactive); in the experiment on EKVX, 1.79 µM (inactive) and 7.05 µM (inactive) and 3.31 µM (inactive); with HL-60, 635 nM (active) and 733 nM (active) and 2.42 µM (inactive); with SK-MEL-5, 14.9 µM (inactive) and 12.7 µM (inactive) and 12.4 µM (inactive). In addition, the GI50 in the experiment with HCC 2998 is 3.15 µM (inactive) and 2.61 µM (inactive) and 1.59 µM (inactive); with HT-29, 497 nM (active) and 828 nM (active) and 735 nM (active); in the experiment with U-251, 277 nM (active) and 1.41 µM (inactive) and 615 nM (active); in the experiment on OVCAR-3 it was 798 nM (active) and 2.23 µM (inactive) and 1.51 µM (inactive); with MDA-MB-231, 8.36 µM (inactive) and 1.22 µM (inactive) and 1.95 µM (inactive).

For the compound `COC(=O)c1ccc(C)cc1C1CN=NC12Cc1cccc(C)c1C2=O` (stereo unspecified), the GI50 in the experiment on RPMI-8226 was 20.8 µM (inactive); with Hs-578T it was 38.3 µM (inactive); in the experiment with UACC-257, 29.7 µM (inactive); with M14, 19.6 µM (inactive); in the experiment on OVCAR-4 it was 26.5 µM (inactive); in the experiment with SNB-75, 34.2 µM (inactive). Also, the GI50 in the experiment with 786-0 was > 100 µM (inactive); with CAKI-1 it was 67.6 µM (inactive); in the experiment on Malme-3M it was 27.8 µM (inactive); in the experiment on EKVX it was 27.6 µM (inactive); in the experiment on HL-60 it was 20.2 µM (inactive); in the experiment with SK-MEL-5, 22.2 µM (inactive). In addition, the GI50 with HCC 2998 was 42.2 µM (inactive); in the experiment on HT-29, 71.6 µM (inactive); in the experiment with U-251, 79.1 µM (inactive); with OVCAR-3 it was 32.8 µM (inactive); with MDA-MB-231 it was > 100 µM (inactive).

With `CCOc1cc(CCNC)c2c(ccc3ccc(OC)c(O)c32)c1OC`, the GI50 in the experiment on RPMI-8226 was 12.4 µM (inactive); in the experiment on Hs-578T, 17.4 µM (inactive); in the experiment on UACC-257, 13.1 µM (inactive); in the experiment with M14, 13.9 µM (inactive); in the experiment on OVCAR-4, 13.7 µM (inactive); in the experiment on SNB-75, 16 µM (inactive). Also, the GI50 in the experiment with 786-0 was 17.5 µM (inactive); with CAKI-1, 17.5 µM (inactive); in the experiment with Malme-3M it was 6.92 µM (inactive); in the experiment on EKVX, 19.3 µM (inactive); in the experiment with HL-60, 15 µM (inactive); with SK-MEL-5, 11.8 µM (inactive). The GI50 was 15.5 µM (inactive) in the experiment with HCC 2998; 14.8 µM (inactive) with HT-29; 18.3 µM (inactive) in the experiment with U-251; 14.5 µM (inactive) with OVCAR-3; 13.4 µM (inactive) in the experiment with MDA-MB-231.

As to `Cc1c2c(c(C)n1-c1ccccc1)C(=O)N(CCSC(=N)N)C2=O`, the GI50 is > 100 µM (inactive) with RPMI-8226; > 100 µM (inactive) with Hs-578T; 28.8 µM (inactive) in the experiment with UACC-257; > 100 µM (inactive) in the experiment with M14; 9.29 µM (inactive) in the experiment on OVCAR-4; 15.6 µM (inactive) in the experiment on SNB-75. In addition, the GI50 in the experiment with 786-0 was > 100 µM (inactive); in the experiment on CAKI-1 it was 50 µM (inactive); with Malme-3M, > 100 µM (inactive); in the experiment on EKVX it was 9.75 µM (inactive); in the experiment on HL-60, > 100 µM (inactive); with SK-MEL-5, 1.96 µM (inactive). The GI50 was > 100 µM (inactive) with HCC 2998; > 100 µM (inactive) in the experiment with HT-29; 68.9 µM (inactive) in the experiment on U-251; > 100 µM (inactive) with OVCAR-3; > 100 µM (inactive) in the experiment with MDA-MB-231.

In the case of `O=C1C=C2C(=NC34CCCCC3C(c3ccccc3)C3=C(c5ccccc5CC3)N24)c2ccccc21` (stereo unspecified), the GI50 with RPMI-8226 is > 10 µM (inactive); in the experiment with Hs-578T it was > 10 µM (inactive); in the experiment on UACC-257, > 10 µM (inactive); in the experiment on M14, > 10 µM (inactive); in the experiment with OVCAR-4, > 10 µM (inactive); in the experiment on SNB-75 it was 8.95 µM (inactive). Further, the GI50 with 786-0, in the experiment on CAKI-1, in the experiment with Malme-3M, with EKVX, with HL-60 and in the experiment on SK-MEL-5 was > 10 µM (inactive) throughout. For the same compound, the GI50 in the experiment on HCC 2998, with HT-29, in the experiment on U-251, with OVCAR-3 and in the experiment on MDA-MB-231 was > 10 µM (inactive) throughout.

For the compound `COC(=O)C1=C(C(=O)OC)N(c2ccncc2)C(c2ccco2)=CC1c1ccccc1[N+](=O)[O-]` (stereo unspecified), the GI50 with RPMI-8226 is 1.39 µM (inactive); in the experiment with Hs-578T, 5.94 µM (inactive); in the experiment on UACC-257, 2.02 µM (inactive); in the experiment on M14, 4.21 µM (inactive); in the experiment on OVCAR-4, 5.97 µM (inactive); with SNB-75, 5.64 µM (inactive). In addition, the GI50 is 1.7 µM (inactive) in the experiment with 786-0; 14.2 µM (inactive) with CAKI-1; 4.55 µM (inactive) in the experiment with Malme-3M; 6.59 µM (inactive) in the experiment with EKVX; 2.46 µM (inactive) in the experiment with HL-60; 2.39 µM (inactive) in the experiment on SK-MEL-5. The GI50 in the experiment on HCC 2998 was 2.03 µM (inactive); with HT-29 it was 1.99 µM (inactive); with U-251, 3.32 µM (inactive); in the experiment on OVCAR-3, 5.27 µM (inactive); in the experiment with MDA-MB-231, 11.6 µM (inactive).

On to `CC(=O)NNc1nc(C)c(C(/C=C/c2ccc([N+](=O)[O-])cc2)=N/N)s1`, for which the GI50 was 30.9 µM (inactive) in the experiment on RPMI-8226; > 100 µM (inactive) in the experiment on Hs-578T; 88.1 µM (inactive) in the experiment on UACC-257; > 100 µM (inactive) with M14; > 100 µM (inactive) in the experiment with OVCAR-4; 87.9 µM (inactive) in the experiment on SNB-75. In addition, the GI50 in the experiment with 786-0 is > 100 µM (inactive); in the experiment on CAKI-1, > 100 µM (inactive); with Malme-3M, > 100 µM (inactive); in the experiment on EKVX, 94.4 µM (inactive); with HL-60, 21 µM (inactive); with SK-MEL-5, > 100 µM (inactive). Also, the GI50 with HCC 2998 is 66.1 µM (inactive); with HT-29, > 100 µM (inactive); in the experiment with U-251, > 100 µM (inactive); in the experiment with OVCAR-3 it was > 100 µM (inactive); in the experiment with MDA-MB-231, 25.4 µM (inactive).

For `C[C@]12OC(=O)[C@]3(O)CC[C@H]4[C@@H](C[C@@H](O)[C@@]5(Cl)CC=CC(=O)[C@]45C)[C@]45OCC6C(=O)O[C@@H]1C[C@@]6(C)[C@H](C4=O)[C@@]32O5` (stereo partly specified), the GI50 in the experiment with RPMI-8226 was 0.596 µM (active); in the experiment on Hs-578T, 6.44 µM (inactive); in the experiment with UACC-257, 2.01 µM (inactive); in the experiment with M14 it was 1.13 µM (inactive); in the experiment with OVCAR-4, 3.78 µM (inactive); in the experiment with SNB-75, 9.31 µM (inactive). In addition, the GI50 was 0.617 µM (active) with 786-0; 0.787 µM (active) in the experiment on CAKI-1; 1.3 µM (inactive) in the experiment with Malme-3M; 1.24 µM (inactive) with EKVX; 0.356 µM (active) with HL-60; 1.56 µM (inactive) in the experiment with SK-MEL-5. In addition, the GI50 with HCC 2998 was 0.0946 µM (active); with HT-29, 1.55 µM (inactive); with U-251, 1.5 µM (inactive); in the experiment with OVCAR-3 it was 1.5 µM (inactive); in the experiment with MDA-MB-231, 3.02 µM (inactive).

(Values after ChEMBL document CHEMBL1201862, “PubChem BioAssay data set” (2004).)
